Target: Mcl-1 protein (UniProtKB Q07820) (Homo sapiens (Human), UniProt Q07820)
Assay: Inhibition of Mcl-1 by the fluorescence polarisation assay (Example A, Method A)
Type: binding
Conditions: fluorescence polarization assay
In short: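 Protein (5 nM) and fluorescein-tagged peptide tracer (1 nM) incubated with 11-point compound series for 2 h at room temperature in HEPES/NaCl/Tween 20 buffer, pH 7.4, 5% DMSO. Displacement read as decrease in polarisation; IC50 fitted by 4-parameter logistic, converted to Ki (cKi or eKi).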

Mcl-1 protein, sequence (Q07820 whole entry): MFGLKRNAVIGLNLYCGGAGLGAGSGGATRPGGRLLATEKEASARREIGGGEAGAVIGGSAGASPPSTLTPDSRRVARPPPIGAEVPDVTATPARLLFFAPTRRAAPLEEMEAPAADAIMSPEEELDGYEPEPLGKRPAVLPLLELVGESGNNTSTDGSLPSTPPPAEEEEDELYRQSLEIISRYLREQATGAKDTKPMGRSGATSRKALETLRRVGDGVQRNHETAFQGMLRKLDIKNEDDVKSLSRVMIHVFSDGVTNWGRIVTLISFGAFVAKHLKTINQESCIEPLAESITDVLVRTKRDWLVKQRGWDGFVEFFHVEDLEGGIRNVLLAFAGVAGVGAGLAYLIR

O=C(O)[C@]1(Nc2cccc(Cl)c2)CC[C@@]2(CC1)c1ccccc1CC2[C@H]1C[C@@H]1COc1ccnc2ccsc12 (single isomer, unassigned) [Example 103, (1r,4r)-4-(3-chloroanilino)-2′-[(1R*,2S*)-2-{[(thieno[3,2-b]pyridin-7-yl)oxy]methyl}cyclopropyl]-2′,3′-dihydrospiro[cyclohexane-1,1′-indene]-4-carboxylic acid]
Ki: 0.214 µM

O=C(O)[C@]1(Nc2cccc(Cl)c2)CC[C@]2(CC1)C(COCCc1ccccc1Cl)=Cc1ccccc12 [Example 419, (1s,4s)-4-(3-chloroanilino)-2′-{[2-(2-chlorophenyl)ethoxy]methyl}spiro[cyclohexane-1,1′-indene]-4-carboxylic acid]
Ki: 0.3 µM

Cc1nc2c(c(OCCCC3Cc4ccccc4[C@]34CC[C@@](Nc3cccc(Cl)c3)(C(=O)O)CC4)n1)C(C)CC2 (stereo partly drawn) [Example 468, (1r,4r)-4-(3-chloroanilino)-2′-{3-[(2,5-dimethyl-6,7-dihydro-5H-cyclopenta[d]pyrimidin-4-yl)oxy]propyl}-2′,3′-dihydrospiro[cyclohexane-1,1′-indene]-4-carboxylic acid]
Ki: 0.234 µM

CCCC1Cc2ccccc2[C@]12CC[C@@](Nc1cccc(Br)c1)(C(=O)O)CC2 (stereo partly drawn) [Example 148, (1r,4r)-4-(3-bromoanilino)-2′-propyl-2′,3′-dihydrospiro[cyclohexane-1,1′-indene]-4-carboxylic acid]
Ki: 0.258 µM

O=C(O)[C@]1(Nc2cccc(Cl)c2)CC[C@@]2(C=Cc3ncccc32)CC1 [Example 70, (1r,4r)-4-(3-chloroanilino)spiro[cyclohexane-1,5′-cyclopenta[b]pyridine]-4-carboxylic acid]
Ki: 25.9 µM

COCCCC1Cc2ccccc2[C@]12CC[C@@](Nc1cccc(Cl)c1)(C(=O)O)CC2 (stereo partly drawn) [Example 197, (1r,4r)-4-(3-chloroanilino)-2′-(3-methoxypropyl)-2′,3′-dihydrospiro[cyclohexane-1,1′-indene]-4-carboxylic acid]
Ki: 1.38 µM

Cc1ccc(S(=O)(=O)N2Cc3ccccc3C23CCC(Nc2cccc(Cl)c2)(C(=O)O)CC3)cc1 (single isomer, unassigned) [Example 29, 4-(3-chloroanilino)-2′-(4-methylbenzene-1-sulfonyl)-2′,3′-dihydrospiro[cyclohexane-1,1′-isoindole]-4-carboxylic acid]
Ki: 15.8 µM

O=C(O)[C@]1(Nc2cccnc2)CC[C@]2(CC1)C(Br)=Cc1ccccc12 [Example 87, (1s,4s)-2′-bromo-4-[(pyridin-3-yl)amino]spiro[cyclohexane-1,1′-indene]-4-carboxylic acid]
Ki: 4.38 µM

O=C(O)[C@]1(Nc2cccc(Cl)c2)CC[C@@]2(CC1)c1ccccc1CC2c1cccc(Cl)c1 (single isomer, unassigned) [Example 344, (1r,4r)-4-(3-chloroanilino)-2′-(3-chlorophenyl)-2′,3′-dihydrospiro[cyclohexane-1,1′-indene]-4-carboxylic acid]
Ki: 11.2 µM

COc1cccc(C2Cc3ccccc3[C@]23CC[C@@](Nc2cccc(Cl)c2)(C(=O)O)CC3)c1Cl (single isomer, unassigned) [Example 291, (1r,4r)-4-(3-chloroanilino)-2′-(2-chloro-3-methoxyphenyl)-2′,3′-dihydrospiro[cyclohexane-1,1′-indene]-4-carboxylic acid]
Ki: 2.54 µM

O=C(O)[C@]1(Nc2cccc(Cl)c2)CC[C@]2(CC1)C(Br)=Cc1ccc(F)cc12 [Example 139, (1s,4s)-2′-bromo-4-(3-chloroanilino)-6′-fluorospiro[cyclohexane-1,1′-indene]-4-carboxylic acid]
Ki: 0.265 µM

O=C(O)[C@]1(Nc2cccc(Cl)c2)CC[C@]2(CC1)C(Br)=Cc1c(Cl)cccc12 [Example 137, (1s,4s)-2′-bromo-4′-chloro-4-(3-chloroanilino)spiro[cyclohexane-1,1′-indene]-4-carboxylic acid]
Ki: 0.192 µM

COc1ccc(C)c(C2=Cc3ccccc3[C@]23CC[C@@](Nc2cccc(Cl)c2)(C(=O)O)CC3)c1 [Example 252, (1s,4s)-4-(3-chloroanilino)-2′-(5-methoxy-2-methylphenyl)spiro[cyclohexane-1,1′-indene]-4-carboxylic acid]
Ki: 5.27 µM

Cc1cncn(CCCC2Cc3ccccc3[C@]23CC[C@@](Nc2cccc(Cl)c2)(C(=O)O)CC3)c1=O (stereo partly drawn) [Example 183, (1r,4r)-4-(3-chloroanilino)-2′-[3-(5-methyl-6-oxopyrimidin-1 (6H)-yl)propyl]-2′,3′-dihydrospiro[cyclohexane-1,1′-indene]-4-carboxylic acid]
Ki: 2.48 µM

O=C(O)[C@]1(Nc2cccc(Cl)c2)CC[C@@]2(CC1)c1ccccc1CC2c1cccc(Oc2cccnc2)c1 (single isomer, unassigned) [Example 374, (1r,4r)-4-(3-chloroanilino)-2′-{3-[(pyridin-3-yl)oxy]phenyl}-2′,3′-dihydrospiro[cyclohexane-1,1′-indene]-4-carboxylic acid]
Ki: 0.189 µM

COCC(F)(F)CC1Cc2ccccc2[C@]12CC[C@@](Nc1cccc(Cl)c1)(C(=O)O)CC2 (stereo partly drawn) [Example 502, (1r,4r)-4-(3-chloroanilino)-2′-(2,2-difluoro-3-methoxypropyl)-2′,3′-dihydrospiro[cyclohexane-1,1′-indene]-4-carboxylic acid]
Ki: 77.8 µM

O=C(O)[C@]1(Nc2cccc(Cl)c2)CC[C@@]2(CC1)c1ccccc1CC2CCCC1CCCC1 (stereo partly drawn) [Example 153, (1r,4r)-4-(3-chloroanilino)-2′-(3-cyclopentylpropyl)-2′,3′-dihydrospiro[cyclohexane-1,1′-indene]-4-carboxylic acid]
Ki: 0.507 µM

CC1CCc2nccc(OCCCC3Cc4ccccc4[C@]34CC[C@@](Nc3ccccc3)(C(=O)O)CC4)c21 (stereo partly drawn) [Example 477, (1r,4r)-4-anilino-2′-{3-[(5-methyl-6,7-dihydro-5H-cyclopenta[b]pyridin-4-yl)oxy]propyl}-2′,3′-dihydrospiro[cyclohexane-1,1′-indene]-4-carboxylic acid]
Ki: 0.236 µM

O=C(O)[C@]1(Nc2cccc(Cl)c2)CC[C@@]2(CC1)c1ccccc1CC2c1cccc(OCc2ccncc2)c1 (single isomer, unassigned) [Example 373, (1r,4r)-4-(3-chloroanilino)-2′-{3-[(pyridin-4-yl)methoxy]phenyl}-2′,3′-dihydrospiro[cyclohexane-1,1′-indene]-4-carboxylic acid]
Ki: 0.221 µM

COc1ccc(C2Cc3ccccc3C23CCC(Nc2cccc(Cl)c2)(C(=O)O)CC3)cc1Cl (stereo not drawn) [Example 279, (1r,4r)-4-(3-chloroanilino)-2′-(3-chloro-4-methoxyphenyl)-2′,3′-dihydrospiro[cyclohexane-1,1′-indene]-4-carboxylic acid]
Ki: 0.383 µM

CN1c2ccccc2[C@]2(CC[C@@](Nc3cccc(Br)c3)(C(=O)O)CC2)C1=O [Example 17, (1s,4s)-4-(3-bromoanilino)-1′-methyl-2′-oxo-1′,2′-dihydrospiro[cyclohexane-1,3′-indole]-4-carboxylic acid]
Ki: 23.1 µM

COc1ccc2c(c1)C=C(Br)[C@]21CC[C@](Nc2cccc(Cl)c2)(C(=O)O)CC1 [Example 130, (1s,4s)-2′-bromo-4-(3-chloroanilino)-5′-methoxyspiro[cyclohexane-1,1′-indene]-4-carboxylic acid]
Ki: 0.0924 µM

O=C(O)[C@]1(Nc2cccc(Cl)c2)CC[C@@]2(CC1)c1ccccc1CC2c1ccc2ccoc2c1 (single isomer, unassigned) [Example 290, (1r,4r)-2′-(1-benzofuran-6-yl)-4-(3-chloroanilino)-2′,3′-dihydrospiro[cyclohexane-1,1′-indene]-4-carboxylic acid]
Ki: 14.4 µM

O=C(O)C1(Nc2cccc(Br)c2)CCC2(CC1)c1ccccc1CC2CCCc1ccccc1 (single isomer, unassigned) [Example 151, (1r,4r)-4-(3-bromoanilino)-2′-(3-phenylpropyl)-2′,3′-dihydrospiro[cyclohexane-1,1′-indene]-4-carboxylic acid]
Ki: 1.34 µM

COc1cccc(C2Cc3ccccc3[C@]23CC[C@@](Nc2cccc(Cl)c2)(C(=O)O)CC3)c1C (single isomer, unassigned) [Example 322, (1r,4r)-4-(3-chloroanilino)-2′-(3-methoxy-2-methylphenyl)-2′,3′-dihydrospiro[cyclohexane-1,1′-indene]-4-carboxylic acid]
Ki: 17.7 µM

O=C(O)[C@]1(Nc2cccc(Cl)c2)CC[C@@]2(CC1)c1ccccc1CC2[C@H]1C[C@@H]1COc1ccccc1 (single isomer, unassigned) [Example 112, (1r,4r)-4-(3-chloroanilino)-2′-[(1R*,2S*)-2-(phenoxymethyl)cyclopropyl]-2′,3′-dihydrospiro[cyclohexane-1,1′-indene]-4-carboxylic acid]
Ki: 1.62 µM

COc1cccc(C2Cc3ccccc3[C@]23CC[C@@](Nc2cccc(Cl)c2)(C(=O)O)CC3)c1 (single isomer, unassigned) [Example 273, (1r,4r)-4-(3-chloroanilino)-2′-(3-methoxyphenyl)-2′,3′-dihydrospiro[cyclohexane-1,1′-indene]-4-carboxylic acid]
Ki: 1.72 µM

O=C(O)[C@]1(Nc2cccc(Cl)c2)CC[C@]2(CC1)C(C1CC1)=Cc1ccccc12 [Example 90, (1r,4r)-4-(3-chloroanilino)-2′-cyclopropylspiro[cyclohexane-1,1′-indene]-4-carboxylic acid]
Ki: 2.15 µM

CN(c1cccc(Cl)c1)[C@]1(C(=O)O)CC[C@]2(C=Cc3ccccc32)CC1 [Example 73, (1r,4r)-4-[(3-chlorophenyl)(methyl)amino]spiro[cyclohexane-1,1′-indene]-4-carboxylic acid]
Ki: 60.5 µM

CN1C(=O)Cc2cc(OCCCC3Cc4ccccc4[C@]34CC[C@@](Nc3cccc(Cl)c3)(C(=O)O)CC4)ccc21 (stereo partly drawn) [Example 480, (1r,4r)-4-(3-chloroanilino)-2′-{3-[(1-methyl-2-oxo-2,3-dihydro-1H-indol-5-yl)oxy]propyl}-2′,3′-dihydrospiro[cyclohexane-1,1′-indene]-4-carboxylic acid]
Ki: 0.431 µM
